Results from patent US10526580B2, “Differentiated cell population of endothelial cells derived from human pluripotent stem cells, composition, system, kit and uses thereof” (BIOCANT-ASSOCIAÇÃO DE TRANSFERÊNCIA DE TECNOLOGIA, priority 2012, dated 2020).

How the values were obtained:
[1] = tested on: HUAECs; assay: Vascular toxicity of terbinafine in static or flow culture (qRT-PCR, ELISA); type: cell-based, human
Experimental: (§1) Fluidic shear stress experiments. HESC-derived ECs (2.6×10^6 cells/mL), HUAECs, HUVECs were seeded on flow chamber untreated-slides (μ-slide 0.4, luer, IBIDI) and grown until confluence. Using a programmed IBIDI pump with positive pressure, the cell monolayer was perfused with EGM-2 medium for 7 days, at flow rate of 15.1 mL/min (corresponding to shear stress of 20 dyne/cm2), or 3.02 mL/min (corresponding to shear stress of 4 dyne/cm2). After 7 days the flow was stopped, the cells imaged, and then stained or collected for posterior gene analysis. Medium was collected for ELISA assays. In some experiments, cells were cultured in medium supplemented with terbinafine (0.1 μM or 1 μM) (Sigma) for a maximum of 24 h, under shear stress. Static controls were performed in the chamber coated-slides but without flow. The IBIDI slides allow a laminar perfusion in rectangular flow geometry.
(§2) Evaluation of the levels of vascular injury by specific markers. ELISA kits analyzed supernatants collected from the shear stress experiments for vWF and vWFpp (Gen-Probe GTI Diagnostic) and ADMA (Enzo Life Sciences), according to manufacturer's recommendations.
Terbinafine is an antifungal agent (inhibitor of ergosterol synthesis) that inhibits angiogenesis by suppressing endothelial cell proliferation, inhibits DNA synthesis and activates EC apoptosis^34, 35. Terbinafine is cytotoxic for HUVECs for concentrations above 120 μM^35. To determine whether the hESC-derived ECs cultured under flow conditions could be used to assess vascular toxicity, cells were cultured for 7 days at 20 dyne/cm2 after which the culture medium was supplemented or not with terbinafine (0.1 and 1 μM) and cells cultured under the same flow conditions for one more day. […] Next, was assessed by qRT-PCR the expression of genes involved in inflammation (ICAM-1; E-selectin), oxidative stress sensing (HO-1) and vasculature modulation (eNOS) in hESC-derived cells and control HUAEC after exposition to terbinafine (FIG. 3B). As expected, the expression of these genes increases under fluidic shear stress^36. […] Upregulation of some genes (HO-1 and E-selectin) was only observed for concentrations of 1 μM in HUAECs. […] ADMA is a naturally occurring amino acid that circulates in plasma and is generated by degradation of methylated proteins. Increase levels of ADMA inhibits nitric oxide (NO) production by competitive inhibition of the physiological substrate L-arginine^38. […]
Next, the vascular damage/injury induced by terbinafine was assessed in hESC-derived ECs and control HUAECs, in the same conditions as before, by measuring the levels of ADMA and the ratio von Willebrand factor pro-peptide (vWFpp): von Willebrand factor (vWF) secreted by these cells (FIG. 3C). […]

[2] = tested on: hESC-derived ECs; assay: Vascular toxicity of terbinafine in static or flow culture (morphology, qRT-PCR, ELISA); type: cell-based, human
Experimental: as §1, §2
Terbinafine is an antifungal agent (inhibitor of ergosterol synthesis) that inhibits angiogenesis by suppressing endothelial cell proliferation, inhibits DNA synthesis and activates EC apoptosis^34, 35. Terbinafine is cytotoxic for HUVECs for concentrations above 120 μM^35. To determine whether the hESC-derived ECs cultured under flow conditions could be used to assess vascular toxicity, cells were cultured for 7 days at 20 dyne/cm2 after which the culture medium was supplemented or not with terbinafine (0.1 and 1 μM) and cells cultured under the same flow conditions for one more day. […] Next, was assessed by qRT-PCR the expression of genes involved in inflammation (ICAM-1; E-selectin), oxidative stress sensing (HO-1) and vasculature modulation (eNOS) in hESC-derived cells and control HUAEC after exposition to terbinafine (FIG. 3B). As expected, the expression of these genes increases under fluidic shear stress^36. […] Upregulation of some genes (HO-1 and E-selectin) was only observed for concentrations of 1 μM in HUAECs. […] ADMA is a naturally occurring amino acid that circulates in plasma and is generated by degradation of methylated proteins. Increase levels of ADMA inhibits nitric oxide (NO) production by competitive inhibition of the physiological substrate L-arginine^38. Drugs that inhibit NO pathway, upregulate caveolin-1 expression and/or enhance ADMA levels could potentially be associated with drug-induced endothelial dysfunction. Therefore, increased circulating levels of ADMA may serve as predictive marker of EC dysfunction^38. […] Such effect was not observed for HUAECs cultured under the same conditions. […] In addition, hESC-derived ECs are more sensitive to the effect of terbinafine than HUAECs.
Next, the vascular damage/injury induced by terbinafine was assessed in hESC-derived ECs and control HUAECs, in the same conditions as before, by measuring the levels of ADMA and the ratio von Willebrand factor pro-peptide (vWFpp): von Willebrand factor (vWF) secreted by these cells (FIG. 3C). The last 2 proteins with different biological activity are released in equimolar concentrations in plasma and an increased level of both proteins predicts EC activation/injury. […] Remarkably, hESC-derived ECs cultured under flow conditions in the presence of terbinafine secrete higher levels of ADMA and vWFpp:vWF than without the drug. Again, the sensitivity of HUAECs to terbinafine was lower than hESC-derived ECs. The concentration of ADMA secreted by hESC-derived cells at 24 h is 3.5 times higher than in basal conditions. Importantly, this shift in concentration is observed in human patients with cardiovascular diseases. Healthy persons have an average of 0.45±0.19 μmol of ADMA per liter of blood and this value increases 2.2 or 2.7 folds when the patient has idiopathic pulmonary arterial hypertension^37. […]

[3] = tested on: HUVECs; settings: cited from earlier work
[4] = flow conditions, medium supplemented with terbinafine

## CN(C/C=C/C#CC(C)(C)C)Cc1cccc2ccccc12 [terbinafine]
[1]; flow 20 dyne/cm2, 24 h
  concentration at which upregulation of some genes (HO-1 and E-selectin) was observed: 1000 nM
[1]; flow conditions, exposed to terbinafine, ELISA
  secretion of vWFpp:vWF: higher levels
[1]; [4]
  decrease in the expression of DDAH1 and DDAH2: not observed
[1]; static conditions, ELISA
  secretion of ADMA or vWFpp:vWF versus control conditions: no significant higher secretion
[2]; flow 20 dyne/cm2, terbinafine 0.1 and 1 μM, day 8
  changes in EC morphology and cadherin expression: No significant changes
[2]; flow conditions, ELISA
  secretion of ADMA and vWFpp:vWF versus without the drug: higher levels
[2]; flow conditions, at 24 h, ELISA
  concentration of ADMA secreted, relative to basal conditions: 3.5 times
[2]; [4]
  expression of DDAH1 and DDAH2: significant decrease
[2]; static conditions, ELISA
  secretion of ADMA or vWFpp:vWF versus control conditions: no significant higher secretion
[2]; terbinafine at 0.1 μM, flow 20 dyne/cm2, 24 h
  expression of ICAM-1, E-selectin, HO-1 and eNOS genes (qRT-PCR): higher
[3]
  concentrations cytotoxic for HUVECs: above 120 μM
